How the values were obtained:
HUVECs [1] = test: Immunofluorescence staining of the microtubule; type: cell-based, human; settings: 1 μM, 30 minutes, α-tubulin staining
Method: In order to confirm that test compounds are able to interfere with cells' tubulin cytoskeleton, immunofluorescence staining was performed. The effect of test compounds on the tubulin reorganization was visualised by staining of microtubules using an α-tubulin antibody and the cell nuclei using 4′,6-diamidino-2-phenylindole (DAPI).
The effect of the compounds on the microtubule disruption was examined by staining for α-tubulin. Sterile cover slips were placed in each well of a 6-well plate and 1×10^6 cells/ml (1 ml) HUVECs were seeded and allowed to attach on the cover slips overnight at 37° C. The following day the medium was removed from the wells, replaced by 1 μM of test compounds diluted in medium and incubated for 30 minutes at 37° C. Next, the medium was removed and the cells were fixed in pre-cooled methanol (1 ml) at −20° C. for 30 minutes. Then, the cells were washed twice with 1 ml PBS (5 minutes each time). The primary monoclonal antibody for a-tubulin was diluted in PBS (1:200) and added (1 ml) in each well for 1 h at room temperature (RT). After that, the cells were washed three times with 1 ml PBS and incubated with 1 ml of secondary Alexa Fluor 488 antibody diluted in PBS (1:1000) for 30 minutes at RT in the dark. The cells were washed for a further three times with 1 ml PBS and allowed to air-dry for 10 minutes. The cover slips containing the attached cells were mounted on microscopy slides using ProLong® gold antifade reagent with DAPI (for nuclear staining) and stored at 4° C. until time for analysis. Images were taken using an Olympus FV1000 Point Scanning Confocal Microscope provided by the Department of Biochemistry, TCD. Experiments were performed in duplicate at two independent times. The results were presented as images of the microtubule disruption of endothelial cells.

HUVECs [2] = test: Analysis of endothelial cell morphology; type: cell-based, human; settings: for effect on endothelial cell morphology: 40 minutes exposure; for reversibility of the morphology effect: 3 h after drug washout
Method: Tubulin inhibitors are not only known for their anti-mitotic effect but also for their anti-vascular activity. Treatment with such agents was previously shown to cause vascular shutdown independently of a direct cytotoxic effect on tumour cells. […] The 1 h incubation period (after drug washout) aimed to identify any observable morphological changes of endothelial cells; however the 3 h incubation period served to indicate any signs of reversibility of this effect.
The effect of test compounds on endothelial cells' morphology was examined. 1×10^6 cells/ml HUVECs (1 ml) were seeded into 6-well plates and incubated overnight at 37° C. The next day, the medium was removed and replaced by control solutions (0.1% DMSO in medium) and test compounds diluted in fresh medium. The cells were incubated for 40 minutes at 37° C. Following that, each well was washed with medium to remove detached cells and incubated with fresh medium for a further 1 h or 3 h at 37° C. Next, the medium was removed and 0.5% crystal violet solution was prepared in 20% ethanol and 1 ml was added in each well for 15 minutes at RT. The wells were then washed 3 times with d. water (5 minutes each time). Wells were allowed to air dry and cell morphology was examined under an Olympus CKX41 inverted microscope using a x4 objective. Images were captured with an E-330 SLR camera system 1 h and 3 h after the washout of compounds. Digital images were processed using Cell̂ A software (Mason Technology, Ireland). The experiments were performed in triplicate and the results were presented as images of the morphological changes of endothelial cells after 1 h and 3 h of drug washout.

rat aortic ring cultures [3] = test: Aortic ring assay (anti-vascular model); type: cell-based; settings: for anti-vascular effect on existing microvessel network: 100 nM
Method: The aortic ring assay is an ideal assay for testing the activity of anti-vascular, anti-angiogenic or pro-angiongenic agents. This method was originally developed and modified by Nicosia. The aorta can be excised from mice or rats, cut into ˜1 mm rings and cultured in either basement membrane matrix (matrigel) or collagen gel. Following incubation for several days the rings start to generate outgrowths of branching microvessels which are lined by endothelial cells and supported by pericytes and fibroblasts. The angiogenic response of the aorta is a self-limited process regulated by endogenous growth factors including bFGF [13], VEGF [14], PDGF [15] and angiopoietins.
The rat aorta model is an ex vivo assay which combines advantages of both in vitro and in vivo models. The process of angiogenesis takes place in a defined culture environment which can be easily adapted to different experimental conditions according to the requirement of the study. The cells of the aortic outgrowth have not been modified by repeated passages in culture and thus newly formed microvessels reproduce the characteristics of the vasculature formed during angiogenesis in vivo [17-18]. There is no influx of leukocytes from circulating blood therefore inflammatory complications which affect the interpretation of in vivo assays are minimised. For the purpose of this study, rat aortic ring cultures were used to investigate firstly the anti-vascular and then the anti-angiogenic activity of test compounds.
The successful growth of the aortic rings into a mircovessel network was dependent on several factors including (i) the amount of periaortic fibroadipose tissue left on the ring, (ii) the orientation of the ring, the way which the ring was embedded into the matrigel and (iii) the volume of the matrigel used.
The aortic ring assay is an ex vivo assay which allows the analyst to examine the inhibition/stimulation of angiogenesis as well as the breakdown of existing vasculature. Basement membrane matrix (matrigel) was stored at −20° C. Prior to use, matrigel vial was placed on ice and kept at 4° C. overnight in order to thaw. The matrigel was kept on ice at all times for the duration of the experiment. Aortic rings were obtained by excising the thoracic aorta of 5-10 weeks old Wistar male rats and removing the fibroadipose tissue from the aortic wall. The rings were obtained by cross-sectioning the aorta at ˜1 mm intervals, removed any blood clots by washing several times with EBM-2. Matrigel (80 μl) was placed uniformly in each well of a 12-well plate and the aortic rings were then placed individually in between the matrigel layer with the lumen perpendicular to the surface of the plate. The matrigel solution was allowed to solidify for 30-40 minutes at 37° C. and 1 ml EBM-2 medium (supplemented with 2% FBS and […] streptomycin/penicillin solution) was added to each culture. The aortic rings were kept in a humidified CO2 incubator at 37° C. and fresh medium was replaced three times a week starting from day 3. Once an established microvessel network was developed (day 7-9), test compounds diluted in EBM-2 medium (1 ml) were added to each well and incubated at 37° C. for 24 h. The cultures were monitored for microvessel breakdown over time and images were taken 1 h, 4 h and 24 h after treatment using an Olympus CKX41 inverted microscope. Images were captured with an E-330 SLR camera system and processed using Cell̂ A software. Each compound concentration was tested in duplicate. Results were presented as images showing the microvessel breakdown at each time point.

rat aortic ring cultures [4] = test: Aortic ring assay (anti-angiogenic effect); type: cell-based

SMILES	microtubule disruption (HUVECs [1])	effect on endothelial cell morphology (HUVECs [2]; 0.1 μM)	effect on endothelial cell morphology (HUVECs [2]; 1 μM)	reversibility of the morphology effect (HUVECs [2])	anti-vascular effect on established microvessel network (rat aortic ring cultures [3]; 0.1 μM)	anti-vascular effect on established microvessel network (rat aortic ring cultures [3]; 1 μM, 24 h incubation)	anti-angiogenic effect (microvessel formation) (rat aortic ring cultures [4]; 10 nM)	anti-angiogenic effect (microvessel formation) (rat aortic ring cultures [4]; 100 nM)	anti-vascular effect on established microvessel network (rat aortic ring cultures [3]; 1 nM)	anti-vascular effect on established microvessel network (rat aortic ring cultures [3]; 10 nM)	anti-vascular effect on established microvessel network (rat aortic ring cultures [3]; 50 nM, 4 h of treatment)	anti-vascular effect on established microvessel network (rat aortic ring cultures [3]; 50 nM, 24 h)	anti-angiogenic effect (microvessel formation) (rat aortic ring cultures [4]; 50 nM)	anti-vascular effect on existing microvessel network (rat aortic ring cultures [3]; 4 h of treatment)	anti-vascular effect on existing microvessel network (rat aortic ring cultures [3]; 24 h of treatment)	anti-angiogenic effect (microvessel formation) (rat aortic ring cultures [4]; 1 nM)
COc1ccc(C2=CC(=O)CCc3c2cc(OC)c(OC)c3OC)cc1OC(=O)C(CC(C)C)NC(=O)C(O)C(N)Cc1ccccc1.Cl (stereo not shown) [Compound 44]	induce microtubule disruption	minor effect	cell monolayer was disturbed	reversible effect	did not result in a clear anti-vascular effect	apparent microvessel breakdown	slight decrease	significant (p<0.05) reduction	–	–	–	–	–	–	–	–
COc1ccc(C2=CC(=O)COc3c2cc(OC)c(OC)c3OC)cc1OC(=O)C(CC(C)C)NC(=O)C(O)C(N)Cc1ccccc1.Cl (stereo not shown) [Compound 45, 2-methoxy-5-(7,8,9-trimethoxy-3-oxo-2H-1-benzoxepin-5-yl)phenyl 2-(3-amino-2-hydroxy-4-phenylbutanamido)-4-methylpentanoate]	disruption of microtubule organisation	severe effect	severe effect	did not seem to regain their original shape	–	–	insignificantly decreased	–	did not demonstrate any obvious anti-vascular activity	did not demonstrate any obvious anti-vascular activity	sufficient to disrupt the microvessel network	more evident	almost complete inhibition	–	–	–
COc1ccc(C2=CC(=O)CCc3c2cc(OC)c(OC)c3OC)cc1N [Compound 28, 2-methoxy-5-(2,3,4-trimethoxy-7-oxo-6,7-dihydro-5H-benzo[7]annulen-9-yl)benzenaminium chloride]	Microtubule disruption was observed	modifying the cells' structure	–	cells regained their shape	–	–	did not demonstrate a decrease in microvessel formation	complete growth inhibition	–	–	–	–	complete growth inhibition	evident changes in the microvessels' structure	greater disruption	–
COc1ccc(C2=CC(=O)CCc3c2cc(OC)c(OC)c3OC)cc1O [Compound 1, (Z)-8,9-dihydro-5-(3-hydroxy-4-methoxyphenyl)-1,2,3-trimethoxybenzo[7]annulen-7-one]	Microtubule disruption was observed	modifying the cells' structure	–	cells regained their shape	–	–	significantly (p<0.01) inhibited the formation of microvessels	significantly (p<0.01) inhibited the formation of microvessels	–	–	–	–	–	evident changes in the microvessels' structure	greater disruption	no inhibitory effect

— patent US20150018566A1, “TUBULIN BINDING AGENTS” (priority 2011, published 2015)
